Measured values reported in US8309608B2, “Use of eNOS transcription enhancers in the cell therapy of ischemic heart diseases” (Sanofi-Aventis Deutschland GmbH, priority 2003, dated 2012).

Assays:
[1] = tested on: eNOS promoter (eNOS transcription); assay: luciferase assay for activation of eNOS transcription; assay type: cell-based; details: human endothelial cell line with eNOS promoter-luciferase construct, 18 hours incubation; for TIR(max) value (maximum transcription induction ratio): ratio vs solvent alone; for EC50: read-out: EC50 value of transcription induction ratio
Description: Activation of eNOS transcription was measured as described in detail in Li et al., Activation of protein kinase C alpha and/or epsilon enhances transcription of the human endothelial nitric oxide synthase gene, Mol. Pharmacol. 1998, 53:630-637. Briefly, a 3.5 kB long fragment 5′ of the starting codon of the eNOS gene was cloned, sequenced and cloned in firefly luciferase expression plasmids to monitor activation of the eNOS promoter by reporter gene activity. A human endothelial cell line stable transfected and expressing this promoter-reporter construct was used for compound testing. Cells were incubated for 18 hours with compounds. All compounds were dissolved before in sterile dimethylsulfoxide (DMSO). A final concentration of 0.5% DMSO in complete medium was allowed. Induction of reporter gene expression in these cells was measured using a standard luciferase assay system (Promega, Madison, Wis., USA; Cat. No E150) according to the manufacturer's instructions. Luciferase induction in cells incubated with compounds were compared to those incubated with solvent alone. The ratio of both activities (transcription induction ratio, TIR) was plotted as a function of compound concentration. Typically, TIR values started at low concentrations at a ratio of 1, indicating no compound effect, and extended up to a maximum TIR value TIR(max) which indicates the increase of the eNOS transcription. EC50 values of transcription induction ratios as a function of compound concentration were determined graphically.

[2] = tested on: athymic NMRI nude mice, hind limb ischemia; assay: in vivo hind limb ischemia model in mice (laser Doppler blood flow after injection of pretreated cells); details: 5×10^5 cells/mouse i.v., measured after two weeks
Description: For incubation with the eNOS transcription enhancer 4-fluoro-N-(indan-2-yl)benzamide, 1 ml of a suspension of 1000000 stem and progenitor cells in 1 ml of X-Vivo 10 cell culture medium was mixed with 1 μl of a solution of 4-fluoro-N-(indan-2-yl)benzamide in dimethylsulfoxide (DMSO) which had been prepared by dissolution of 1.275 mg of 4-fluoro-N-(indan-2-yl)benzamide in 1 ml of DMSO. The concentration of 4-fluoro-N-(indan-2-yl)benzamide in the resulting mixture was 5 μM. […]
The neovascularization capacity of bone marrow stem and progenitor cells was investigated in a murine model of hind limb ischemia by use of 8 to 10 week old athymic NMRI nude mice (The Jackson Laboratory, Bar Harbor, Me., USA) weighing 18 to 22 g. […] After two weeks the limb perfusion was determined. Specifically, the ischemic (right) limb/normal (left) limb blood flow ratio was measured using a laser Doppler blood flow meter (Laser Doppler Perfusion Imager System, MoorLDI-Mark 2, Moor Instruments, Wilmington, Del., USA). […] After twice recording laser Doppler color images, the average perfusions of the ischemic and non-ischemic limb were calculated on the basis of colored histogram pixels. To minimize variables including ambient light and temperature, calculated perfusion was expressed as the ratio of ischemic to non-ischemic hind limb perfusion. […]

[3] = tested on: bone marrow stem and progenitor cells; assay: migratory capacity of bone marrow stem and progenitor cells in response to SDF-1 (modified Boyden chamber); assay type: cell-based, human; details: 100 ng/ml SDF-1
Description: For incubation with the eNOS transcription enhancer 4-fluoro-N-(indan-2-yl)benzamide, 1 ml of a suspension of 1000000 stem and progenitor cells in 1 ml of X-Vivo 10 cell culture medium was mixed with 1 μl of a solution of 4-fluoro-N-(indan-2-yl)benzamide in dimethylsulfoxide (DMSO) which had been prepared by dissolution of 1.275 mg of 4-fluoro-N-(indan-2-yl)benzamide in 1 ml of DMSO. The concentration of 4-fluoro-N-(indan-2-yl)benzamide in the resulting mixture was 5 μM. For incubation with the eNOS transcription enhancer 4-fluoro-N-(indan-2-yl)benzamide and the eNOS inhibitor N^G-monomethyl-L-arginine (L-NMMA), in addition to 4-fluoro-N-(indan-2-yl)benzamide, L-NMMA (Sigma, St. Louis, Mo., USA) was added to the cell suspension to give a resulting mixture with a 4-fluoro-N-(indan-2-yl)benzamide concentration of 5 μM and an L-NMMA concentration of 1 mM. Incubation was carried for 18 hours at a temperature of 37° C. under an atmosphere of air containing 5% of carbon dioxide. The cells were isolated by centrifugation, washed two times with PBS and resuspended in X-Vivo 10.
For assessing the migratory capacity of bone marrow stem and progenitor cells, a total of 1×10^6 bone marrow stem and progenitor cells were resuspended in 250 μl of X-Vivo 10 and placed in the upper chamber of a modified Boyden chamber filled with matrigel (BioCoat invasion assay, 8 μm pore size, Becton Dickinson Labware, Two Oak Park, Bedford, Mass., USA). Then, the chamber was placed in a 24-well culture dish containing 500 μl endothelial basic medium (EBM) supplemented with either phosphate buffered saline (PBS), 50 ng/ml VEGF, or 100 ng/ml SDF-1. After 24 hours incubation at 37° C., transmigrated cells were counted.

melting point [°C]	SMILES	TIR(max) value (maximum transcription induction ratio) [1]	EC50 [1] [nM]	laser Doppler-derived relative blood flow (ratio ischemic limb/normal limb) ([2]; cells from the patients treated for 18 hours with 5 μM compound and 1 mM L-NMMA) [%]	laser Doppler-derived relative blood flow (ratio ischemic limb/normal limb) ([2]; cells from the patients treated for 18 hours with 5 μM compound) [%]	migratory response to SDF-1 ([3]; cells from the healthy controls, 18 hours of treatment with 5 μM compound)	migratory response to SDF-1 ([3]; cells from the healthy controls, 18 hours of treatment with 5 μM compound, listed as 4-fluoro-(N-indan-2-yl)benzamide)	migratory response to SDF-1 ([3]; cells from the patients, 18 hours of treatment with 5 μM compound and 1 mM L-NMMA)	migratory response to SDF-1 ([3]; cells from the patients, 18 hours of treatment with 5 μM compound)
147.5	O=C(NC1Cc2ccccc2C1)c1ccc2c(c1)OC(F)(F)O2 [2,2-difluorobenzo[1,3]dioxol-5-carboxylic acid indan-2-ylamide]	2.7	140	–	–	–	–	–	–
167	O=C(NC1Cc2ccccc2C1)c1ccc(F)cc1 [4-fluoro-N-(indan-2-yl)benzamide]	4.10	800	39.7 ± 10.3	59.1 ± 11.6	111.2±38.5 ×1000 migrated cells	74.3±21.5 ×1000 migrated cells	23.9±7.4 ×1000 migrated cells	74.0±20.7 ×1000 migrated cells
